Source: publication PMC10619976, “Structural basis of EHEP-mediated offense against phlorotannin-induced defense from brown algae to protect akuBGL activity” (eLife, 2023)

Target: T1, akuBGL (110 kDa β-glucosidase) (Aplysia kurodai, UniProt A0A1V1FXL2)
T1 construct: gene ApBGL; native, purified from digestive fluid; signal peptide M1-D25 removed; 110 kDa; two GH1 domains (L26-T494, D513-P978); N-glycosylated at N113, N212, N645; precursor ends at M994
Experiment: HPLC or absorbance at […] nm of o-nitrophenol
Type: biochemical
Settings: 2.5 mM ONPG, 49 nM akuBGL, pH 5.5, 100 mM NaCl, 10 mM CaCl2, 37 °C, 10 min

T1 sequence (A0A1V1FXL2 entry or part of it): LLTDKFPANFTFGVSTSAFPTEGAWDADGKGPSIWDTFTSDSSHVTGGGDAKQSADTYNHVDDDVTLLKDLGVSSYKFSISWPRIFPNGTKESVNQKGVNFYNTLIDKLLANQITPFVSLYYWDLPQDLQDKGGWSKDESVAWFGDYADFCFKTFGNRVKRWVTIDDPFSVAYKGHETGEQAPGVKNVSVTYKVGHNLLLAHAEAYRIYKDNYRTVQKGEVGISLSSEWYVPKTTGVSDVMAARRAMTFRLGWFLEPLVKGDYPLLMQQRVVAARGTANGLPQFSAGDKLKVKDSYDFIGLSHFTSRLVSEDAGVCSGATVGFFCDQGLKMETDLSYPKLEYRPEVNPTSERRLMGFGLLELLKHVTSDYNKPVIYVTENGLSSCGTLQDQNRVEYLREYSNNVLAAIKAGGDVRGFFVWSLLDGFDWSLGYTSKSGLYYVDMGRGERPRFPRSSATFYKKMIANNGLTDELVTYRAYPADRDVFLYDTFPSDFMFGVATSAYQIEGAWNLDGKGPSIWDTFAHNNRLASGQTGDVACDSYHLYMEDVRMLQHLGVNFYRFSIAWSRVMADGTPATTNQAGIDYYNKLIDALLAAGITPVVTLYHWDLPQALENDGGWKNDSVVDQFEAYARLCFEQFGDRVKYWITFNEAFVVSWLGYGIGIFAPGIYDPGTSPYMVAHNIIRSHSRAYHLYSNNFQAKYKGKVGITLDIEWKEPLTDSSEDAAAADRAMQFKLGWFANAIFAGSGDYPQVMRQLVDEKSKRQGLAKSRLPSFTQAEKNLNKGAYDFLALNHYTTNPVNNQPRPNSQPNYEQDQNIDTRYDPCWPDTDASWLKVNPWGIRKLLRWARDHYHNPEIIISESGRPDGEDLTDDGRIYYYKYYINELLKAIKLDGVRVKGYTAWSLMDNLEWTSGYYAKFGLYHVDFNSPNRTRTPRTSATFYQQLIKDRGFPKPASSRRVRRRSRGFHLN

O=[N+]([O-])c1ccccc1O[C@@H]1O[C@H](CO)[C@H](O)[C@H](O)[C@H]1O [ortho-nitrophenyl-β-galactoside]
HPLC or absorbance at 420 nm of o-nitrophenol: Ortho-nitrophenyl-β-galactoside (ONPG) was used as a substrate to measure akuBGL activity
